Test results published in patent US7235689B2, “Hydroxamic acid derivatives having anti-inflammatory action” (Italfarmaco SpA, priority 2003, dated 2007).

Assays:
[1] = tested on: human HEP-G2 hepatoma cell line; assay: Cytotoxicity in vitro on HEP-G2 cells (formazane colorimetric assay); assay type: cell-based; details: 48 h
Procedure: The cytotoxicity of some compounds described in the preceding examples was evaluated in vitro on the human HEP-G2 hepatoma cell line by a commercial colorimetric method (Cell Titer 96® Aqueous One Solution Cell Proliferation Assay—Promega); the method determines the number of living cells on the basis of their ability to metabolize a tetrazolium salt producing formazane. The quantity of formazane produced is proportional to the number of living cells.
The HPE-G2 cells were distributed in micro-plates with 96 wells at a density of 4×10^4 cells/well (100 μl) in M199 medium containing 10% of bovine foetal serum and supplements (complete medium).
After incubation for 24 h (37° C., 5% CO2, 90% humidity) the cells were washed once and the medium was replaced with 200 μl of complete medium containing the substances to be tested at final concentrations of 10^−5, 10^−6 and 10^−7 M. The test was performed in triplicate.
The plates were incubated for a further 48 h, after which 100 μl of medium was removed and 20 μl per well of dye solution was added in accordance with the supplier's instructions. The optical density (λ=490 nm) was read after incubation for 1 h at 37° C. with the use of a plate reader (Victor 2—Wallace Perkin Elmer).
The results are expressed as the percentage inhibition of the formation of formazane in comparison with the control.

[2] = Metabolic resistance in vitro, S9 liver fraction; assay type: in vitro ADME; details: 6 μg/ml, 37° C., phosphate buffer pH 7.4, S9 fraction protein content 2 mg/ml
Procedure: The metabolic resistance of some compounds described in the preceding examples was evaluated by incubating the substances with the S9 fraction of a microsomal preparation of liver cells. Each compound (6 μg/ml) was incubated at 37° C. for 30 min. in phosphate buffer (pH 7.4) containing the S9 fraction (protein content 2 mg/ml). The reaction was stopped by cooling in an ice bath and adding an equal volume of water/acetonitrile (50:50) containing 0.2% of trifluoroacetic acid. After centrifuging, an aliquot of the supernatant fluid was analyzed by HPLC to evaluate the percentage of product that had remained intact.

[3] = tested on: TNFα production in human monocytes stimulated with LPS; assay: Inhibition of TNFα production in human monocytes stimulated with LPS (in vitro); assay type: cell-based; details: Monocyte; human mononuclear peripheral blood cells, LPS 10 ng/ml, 24 hours, ELISA; average of at least two determinations
Procedure: The compounds were dissolved in DMSO to a final concentration of 120 mM and were stored at −80° C. The solutions for the test were prepared by diluting the mother solutions in RPMI 1640 with the addition of 1% FCS and 0.01% DMSO and were filtered with 0.2 μm filters.
Mononuclear peripheral blood cells were obtained from “buffy coats” of healthy donors by separation in a Ficoll-Hypaque gradient. The cells were spread in plates with 96 wells at a concentration of about 500,000 cells per well, suspended in RPMI 1640 containing 1% FCS and were incubated at 37° C. in the presence of various concentrations (from 10^−6 to 10^−11 M) of the compounds to be tested.
After 1 hour, LPS was added (to a final concentration of 10 ng/ml; obtained from E. coli 055:B5) and the plates were incubated at 37° C. for a further 24 hours. Upon completion, the supernatant fluids were collected and used for the determination of the TNFα content by ELISA (ELISA Duoset Kit; R&D systems, Minneapolis, Minn., USA).
The concentration of TNFα was calculated with the use of a calibration curve and the IC50 values (concentration which inhibits the production of the cytokine by 50%) were calculated from the curve obtained, giving the percentage inhibition values for each individual concentration of the compound under test.
The values obtained for the compounds described in the preceding examples are given in the following table (the values are the average of the results obtained in at least two determinations, performed with cells of different donors).

mouse HDAC-1 enzyme = mouse HDAC-1 enzyme (Mus musculus, UniProt O09106); assay: Inhibition of the enzymatic activity of histone deacetylase; assay type: biochemical
Chain of mouse HDAC-1 enzyme (O09106 whole entry): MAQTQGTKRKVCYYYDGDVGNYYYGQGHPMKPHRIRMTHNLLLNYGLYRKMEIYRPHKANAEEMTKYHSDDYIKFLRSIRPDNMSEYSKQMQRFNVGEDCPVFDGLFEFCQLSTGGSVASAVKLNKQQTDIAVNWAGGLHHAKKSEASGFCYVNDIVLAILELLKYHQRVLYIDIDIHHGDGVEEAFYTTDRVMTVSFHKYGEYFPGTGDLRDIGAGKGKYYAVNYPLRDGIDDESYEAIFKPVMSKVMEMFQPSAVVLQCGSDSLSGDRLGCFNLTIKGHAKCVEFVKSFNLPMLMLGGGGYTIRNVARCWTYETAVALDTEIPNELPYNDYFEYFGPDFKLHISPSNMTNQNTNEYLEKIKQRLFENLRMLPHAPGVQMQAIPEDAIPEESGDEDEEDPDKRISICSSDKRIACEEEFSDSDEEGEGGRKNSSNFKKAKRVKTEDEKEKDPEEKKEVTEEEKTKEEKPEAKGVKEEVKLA
Procedure: The capacity of the compounds of the invention to inhibit the activity of the histone deacetylase enzyme was evaluated with the use of the mouse HADC-1 enzyme. The assay was performed by the method already described in the literature [Biochem. Biophys. Acta, 1996, vol. 1296, p. 181]. The IC50 values (concentration which inhibits the activity of the enzyme by 50%) were derived from the percentages of inhibition obtained with various concentrations of the compound under test; these values are given in the following table.

TNFα production = assay: Inhibition of TNFα production in mice induced by LPS (in vivo); details: CD1 female mice, 1 mg/kg orally 60 min. prior to LPS 2 mg/kg i.p., blood TNFα 90 min. after LPS
Procedure: For the compounds of the present invention, the capacity to inhibit TNFα production induced by the administration of LPS was evaluated in mice.
A lethal quantity of LPS (E. coli 055:B5; 2 mg/kg) was administered to the animals (CD1 female mice) by an intraperitoneal route; 90 min. after administration, the animals were killed and the TNFα content present in the blood was determined by ELISA assay.
The compounds under test, suspended in Methyl Cellosolve (0.5% in water), were administered orally, 60 min. prior to the administration of LPS, at a dose of 1 mg/kg.
The results are given in the following table; the values are expressed as percentage inhibition of TNFα production in comparison with the control group.

Row | Compound | Cytotoxicity at 10^−6 M (percentage inhibition of the formation of formazane) [1] [%] | Residual product after 30 min. [2] [%] | IC50 [3] [nM] | IC50 (mouse HDAC-1 enzyme) [nM] | Inhibition of TNFα production in comparison with the control group (TNFα production) [%]
1 | O=C(Cc1ccc(C(F)(F)F)cc1)Nc1ccc(C(=O)NO)cc1 [Ex. 01, N-hydroxy-4-[2-(4-trifluoromethyl-phenyl)-acetylamino]-benzamide] | 3.8 | 78.9 | 14.5 | 142 | 67
2 | CC(CC(=O)Nc1ccc(C(=O)NO)cc1)c1ccccc1 (stereo not drawn) [Ex. 02, N-hydroxy-4-(3-phenyl-butyrylamino)-benzamide] |  |  | 76 |  | 
3 | COc1cccc(CCC(=O)Nc2ccc(C(=O)NO)cc2)c1 [Ex. 03, N-hydroxy-4-[3-(3-methoxy-phenyl)-propionylamino]-benzamide] | 7.3 | 60.7 | 26 | 219 | 56
4 | COc1ccc(CC(=O)Nc2ccc(C(=O)NO)cc2)cc1 [Ex. 04, N-hydroxy-4-[2-(4-methoxy-phenyl)-acetylamino]-benzamide] | 0 | 90.2 | 51.5 | 113 | 42
5 | CCOc1ccc(CC(=O)Nc2ccc(C(=O)NO)cc2)cc1 [Ex. 05, N-hydroxy-4-[2-(4-ethoxy-phenyl)-acetylamino]-benzamide] | 0 | 89.0 | 32 | 90 | 
6 | O=C(CCc1cc(C(F)(F)F)cc(C(F)(F)F)c1)Nc1ccc(C(=O)NO)cc1 [Ex. 06, N-hydroxy-4-[3-(3,5-bis-trifluoromethyl-phenyl)-propionyl-amino]-benzamide] | 13 | 68.4 | 17 | 19 | 
7 | COc1cc(CC(=O)Nc2ccc(C(=O)NO)cc2)cc(OC)c1OC [Ex. 07, N-hydroxy-4-[2-(3,4,5-trimethoxy-phenyl)-acetylamino]-benzamide] |  |  | 45 | 14 | 
8 | CSc1ccc(CC(=O)Nc2ccc(C(=O)NO)cc2)cc1 [Ex. 08, N-hydroxy-4-[2-(4-methylsulphanil-phenyl)-acetylamino]-benzamide] |  |  | 320 | 58 | 
9 | O=C(Cc1cccc(C(F)(F)F)c1)Nc1ccc(C(=O)NO)cc1 [Ex. 09, N-hydroxy-4-[2-(3-trifluoromethyl-phenyl)-acetylamino]-benzamide] |  |  | 70 | 67 | 
10 | O=C(Cc1cccc([N+](=O)[O-])c1)Nc1ccc(C(=O)NO)cc1 [Ex. 10, N-hydroxy-4-[2-(3-nitro-phenyl)-acetylamino]-benzamide] |  |  | 134 | 130 | 
11 | O=C(Cc1cccc(Oc2ccccc2)c1)Nc1ccc(C(=O)NO)cc1 [Ex. 11, N-hydroxy-4-[2-(3-phenoxy-phenyl)-acetylamino]-benzamide] |  |  | 108 | 102 | 
12 | O=C(Cc1ccc(-c2ccccc2)cc1)Nc1ccc(C(=O)NO)cc1 [Ex. 12, N-hydroxy-4-[2-(diphenyl-4-yl)-acteylamino]-benzamide] |  |  | 227 | 7 | 
13 | COc1cccc(CC(=O)Nc2ccc(C(=O)NO)cc2)c1OC [Ex. 13, N-hydroxy-4-[2-(2,3-dimethoxy-phenyl)-acetylamino]-benzamide] |  |  | 187 | 202 | 
14 | O=C(CCc1ccccc1OC(=O)c1ccccc1)Nc1ccc(C(=O)NO)cc1 [Ex. 14, 2-[2-(4-hydroxycarbamoyl-phenylcarbamoyl)-ethyl]-phenyl ester of benzoic acid] |  |  | 157 | 106 | 
15 | O=C(Cc1ccc([N+](=O)[O-])cc1)Nc1ccc(C(=O)NO)cc1 [Ex. 15, N-hydroxy-4-[2-(4-nitro-phenyl)-acteylamino]-benzamide] | 0 |  | 27 | 146 | 
16 | O=C(Cc1ccccc1Oc1ccccc1)Nc1ccc(C(=O)NO)cc1 [Ex. 16, N-hydroxy-4-[2-(2-phenoxy-phenyl)-acetylamino]-benzamide] |  |  | 259 | 118 | 
17 | COc1cc(CC(=O)Nc2ccc(C(=O)NO)cc2)c([N+](=O)[O-])cc1OC [Ex. 17, N-hydroxy-4-[2-(4,5-dimethoxy-2-nitro-phenyl)-acetylamino]-benzamide] |  |  | 280 | 255 | 
18 | O=C(Cc1ccccc1OCc1ccccc1)Nc1ccc(C(=O)NO)cc1 [Ex. 18, N-hydroxy-4-[2-(2-benzyloxy-phenyl)-acetylamino]-benzamide] |  |  | 391 | 112 | 
19 | O=C(Cc1ccccc1[N+](=O)[O-])Nc1ccc(C(=O)NO)cc1 [Ex. 19, N-hydroxy-4-[2-(2-nitro-phenyl)-acetylamino]-benzamide] |  |  | 1000 | 214 | 
